The values below come from patent publication US6506552B2, “Amino acid-trehalose composition” (Meiji Dairies Corporation, priority 1998, dated 2003).

The nature of the test: Forced swimming of mice in a running water pool after oral administration; blood lactic acid, blood sugar and free fatty acid levels. In kind it is in vivo, mice (male; ddY). Here is the method:
This experiment was carried out according to the method disclosed in Jpn. J. Phys. Fitness Sports Med., 1995, 44:225-238. More specifically, mice (male; ddY) (6-week-old; 5 animals per group) were fasted at room temperature for 16 hours, followed by oral administration of a 1.8% by weight aqueous solution containing the composition VAAM or HVAAM as set forth in Table 1 or trehalose; an aqueous solution containing 1.8% by weight of VAAM and 2% by weight of trehalose; or an aqueous solution containing 1.8% by weight of VAAM analogue as set forth in Table 1 and 2% by weight of trehalose in an amount of 37.5 μl/g body weight and thereafter giving the mice a rest at room temperature for 30 minutes. Then the mice were forced to swim in a running water pool (a water tank having a diameter of 32 cm and a depth of 30 cm, which was filled with water maintained at 35° C. and in which the water was circulated at a rate of 8 m/min using a circulator) for 30 minutes. After forcing the mice to swim, they were inspected for the lactic acid level in the blood, the blood sugar (glucose) level and the free fatty acid level in the blood.
The lactic acid level in the blood was determined using a clinical reagent available from Sigma Company, by measuring absorbance at 340 nm due to NADH, each molecule of which was formed when lactic acid was converted into pyruvic acid because of the action of lactic acid dehydrogenase. The free fatty acid level in the serum was determined by centrifuging the collected blood and then quantitatively analyzing the fatty acids present in the supernatant. More specifically, the hydrogen peroxide formed by the action of acyl-CoA synthetic enzyme and acyl-CoA oxidase was reacted with a peroxidase, followed by determination of the absorbance at 550 nm due to the stained 3-methyl-N-ethyl-N-(2-hydroxyethyl)aniline and 4-aminoantipyrine to thus determine the free fatty acid level.

As for `OC[C@H]1O[C@H](O[C@H]2O[C@H](CO)[C@@H](O)[C@H](O)[C@H]2O)[C@H](O)[C@@H](O)[C@@H]1O` [Tre, α, α-trehalose], the “Blood Sugar Level” value (blood glucose, mice fasted 16 h, oral 37.5 μl/g body weight, 30 min rest, after 30 min forced swimming) turned out to be 83.14 mg/dL. Also, the “Lactic Acid Level” value (blood, mice fasted 16 h, oral 37.5 μl/g body weight, 30 min rest, after 30 min forced swimming) is 46.69 mg/dL. The compound further displayed an NEFA (free fatty acid in serum, mice fasted 16 h, oral 37.5 μl/g body weight, 30 min rest, after 30 min forced swimming) of 0.97 mEq/l. Besides, the “free fatty acid level in the blood compared with the group to which 1.8% VAAM was administered” value (mice, after 30 min swimming, FIG. 3, p<0.05) is listed as “significantly higher”. Also, the “lactic acid level in the blood compared with the group to which VAAM was administered” value (mice, after load of swimming over 30 minutes, FIG. 1) is on record as “did not show any significant difference”.
